Tested on: Type III protein secretion of the chimeric SopE‘-’Bla polypeptide (SPI1 type III protein secretion system)
Assay: Primary assay: Type III protein secretion of the chimeric SopE'-'Bla polypeptide by Salmonella enterica
Type: cell-based
Conditions: read-out: SopE IC50(μM)
From the text: Primary assay: Type III protein secretion of the chimeric SopE‘-’Bla polypeptide by Salmonella enterica. This procedure is a cell-based assay that measures the type III-dependent secretion by Salmonella enterica of a plasmid-encoded chimeric polypeptide whose synthesis can be regulated, and which is endowed with an enzymatic activity that can be monitored colorimetrically by hydrolysis of a substrate that is unable to penetrate into the bacterial cytoplasm within the time constraints of the reaction. Thus, the colormetric reaction is not influenced by SopE‘-’Bla polypeptide in the bacterial cytplasm. Instead, it effectively measures the amount of polypeptide that has been secreted from the S. enterica cytoplasm to the extracellular medium via type III system protein secretion.
The SopE‘-’Bla recombinant polypeptide consists of two functionally distinct domains spliced together. The N-terminus domain is encoded by a polynucleotide region specifying the signal for type III secretion of the SopE polypeptide of S. enterica, an effector of the SPI1 type III protein secretion system. The C-terminus domain of SopE‘-’Bla consists of a 263 amino acid peptide sequence that corresponds to the TEM-1 β-lactamase expressed by plasmid pBR322 but without its N-terminal signal sequence. The TEM-1 β-lactamase part of the SopE‘-’Bla chimeric polypeptide is used as a reporter enzyme. It is capable of hydrolyzing nitrocefin resulting in a product whose accumulation can be monitored by colorimetric detection. The secretion of the SopE‘-’Bla chimeric polypeptide from the cytoplasm to the extracellular medium is dependent on type III protein secretion.
For this procedure, cells grown under conditions known to favor a functional SPI1 secretion system are induced for expression of the SopE‘-’Bla protein and grown either in the presence or in the absence of putative inhibitors for determined time. Nitrocefin is then added to the various cultures and its hydrolysis are used for quantitation. An inhibitor of Type III protein secretion is generally a compound that reduces the signal of the enzymatic reaction by decreasing the amount of SopE‘-’Bla secreted into the extracellular medium.

Point of comparison: `Cn1cc(C(=O)N/C(=C/c2cccc(C(F)(F)F)c2)C(=O)N[C@H](COCc2ccccc2)C(=O)O)c2ccccc21` [Compound 70, (R)-3-Benzyloxy-2-[2-[(1-methyl-1H-indole-3-carbonyl)amino]-3-(3-trifluoromethylphenyl)acryloylamino]propionic acid], IC50 86.3 µM. Against it:
- O=C(N[C@@H](CSCc1ccccc1)C(=O)O)/C(=C\c1ccc2ccccc2c1)NC(=O)c1ccc(Br)cc1 [Compound 45, (R)-3-Benzylsulfanyl-2-[2-(4-bromobenzoylamino)-3-naphthalen-2-yl-acryloylamino]propionic acid] — within 1.5-fold, 81.6 µM
- O=C(N[C@@H](COCc1ccccc1)C(=O)O)C(=Cc1ccc(Oc2ccccc2)cc1)NC(=O)c1ccc(C(F)(F)F)cc1 [Compound 15, (S)-3-Benzyloxy-2-[3-(4-phenoxyphenyl)-2-(4-trifluoromethylbenzoylamino)-acryloylamino]propionic acid] — 7.8-fold lower, 11 µM
- CC(C)(S)C(NC(=O)/C(=C\c1ccc(Cl)c(Cl)c1)NC(=O)c1ccccc1)C(=O)O (centres unmarked) [Compound 115] — within 1.5-fold, 61.6 µM
- O=C(NC(COCc1ccccc1)C(=O)O)/C(=C\c1cccc(Oc2ccc(Cl)cc2)c1)NC(=O)c1ccc(C(F)(F)F)cc1 (stereo in doubt) [Compound 31, (S)-3-Benzyloxy-2-[3-[3-(4-chlorophenoxy)phenyl]-2-(4-trifluoromethyl-benzoylamino)acryloylamino]propionic acid] — 11-fold lower, 7.7 µM
- O=C(N[C@@H](Cc1ccc(Cl)cc1)C(=O)O)/C(=C\c1ccc(Cl)c(Cl)c1)NC(=O)c1cc2ccccc2s1 [Compound 66, (S)-2-[2-[(Benzo[b]thiophene-2-carbonyl)amino]-3-(3,4-dichlorophenyl)-acryloylamino]-3-(4-chlorophenyl)propionic acid] — 4.5-fold lower, 19 µM
- CC(C)(S)C(NC(=O)/C(=C\c1cccc(C(F)(F)F)c1)NC(=O)c1ccc(-c2ccccc2)cc1)C(=O)O (centres unmarked) [Compound 95] — 6.1-fold lower, 14.1 µM
- CC(C)(S)C(NC(=O)/C(=C\c1ccc(C(F)(F)F)cc1)NC(=O)c1ccc(-c2ccccc2)cc1)C(=O)O (centres unmarked) [Compound 124] — 5.4-fold lower, 16 µM
- O=C(NC(=Cc1cccc(C(F)(F)F)c1)C(=O)N1C(c2ccc(F)cc2)SC[C@H]1C(=O)O)c1ccc(-c2ccccc2)cc1 (stereo partly drawn) [Compound 61, (4R)-3-[2-[(Biphenyl-4-carbonyl)amino]-3-(3-trifluoromethylphenyl)acryloyl]-2-(4-fluorophenyl)thiazolidine-4-carboxylic acid] — 23-fold lower, 3.7 µM
- O=C(N[C@@H](CSCc1ccccc1)C(=O)O)/C(=C\c1cccc(Oc2ccccc2)c1)NC(=O)c1ccc(Cl)cc1 [Compound 43, (R)-3-Benzylsulfanyl-2-[2-(4-chlorobenzoylamino)-3-(3-phenoxyphenyl)-acryloylamino]propionic acid] — 2.5-fold lower, 34.2 µM
- O=C(NN(Cc1ccc(Oc2ccccc2)cc1)C(=O)N[C@@H](CSCc1ccccc1)C(=O)O)c1ccc(C(F)(F)F)cc1 [Compound 12, 4-Trifluoromethylbenzoic acid-N′-[(4-phenoxyphenyl)methyl]-N′-[[[(2-benzylthio)-1-carboxyethyl]amino]carbonyl]hydrazide] — 6.9-fold lower, 12.5 µM
- Cc1ccc(C(=O)N/C(=C/c2ccc(Cl)c(Cl)c2)C(=O)NC(C(=O)O)C(C)(C)S)cc1 (centres unmarked) [Compound 161] — 1.5-fold lower, 56 µM
- O=C(NC(Cc1ccc(Cl)cc1)C(=O)O)/C(=C\c1cccc(C(F)(F)F)c1)CC(=O)c1ccc(-c2ccccc2)cc1 (centres unmarked) [Compound 4, 2-[2-(2-Biphenyl-4-yl-2-oxoethyl)-3-(3-trifluoromethylphenyl)acryloylamino]-3-(4-chlorophenyl)propionic acid] — 78-fold lower, 1.1 µM
- Cc1ccccc1/C=C(/NC(=O)c1ccc(C(F)(F)F)cc1)C(=O)N[C@@H](CSCc1ccccc1)C(=O)O [Compound 138] — within 1.5-fold, 100 µM
- O=C(O)[C@H](COCc1ccccc1)NC(=O)N(CCc1ccc(-c2ccccc2)cc1)Cc1cccc(C(F)(F)F)c1 [Compound 88, (S)-3-Benzyloxy-2-[3-(2-biphenyl-4-yl-ethyl)-3-(3-trifluoromethylbenzyl)ureido]propionic acid] — 22-fold lower, 4 µM
- O=C(N[C@@H](Cc1ccc(Cl)cc1)C(=O)O)/C(=C\c1cccc(C(F)(F)F)c1)NC(=O)c1ccc(OC(F)(F)F)cc1 [Compound 37, (S)-3-(4-Chlorophenyl)-2-[2-(4-trifluoromethoxybenzoylamino)-3-(3-trifluoromethylphenyl)acryloylamino]propionic acid] — 3.5-fold lower, 25 µM
- O=C(NN(Cc1ccc(OC(F)(F)F)cc1)C(=O)N[C@@H](CSCc1ccccc1)C(=O)O)c1ccc(C(F)(F)F)cc1 [Compound 11, 4-Trifluoromethylbenzoic acid-N′-[(4-trifluoromethoxyphenyl)methyl]-N′-[[[(2-benzylthio)-1-carboxyethyl]amino]carbonyl]hydrazide] — 1.8-fold lower, 49 µM
- O=C(N[C@@H](CSCc1ccccc1)C(=O)O)C(=Cc1ccc2ccccc2c1)NC(=O)c1ccc(I)cc1 [Compound 46, (R)-3-Benzylsulfanyl-2-[2-(4-iodobenzoylamino)-3-naphthalen-2-yl-acryloylamino]propionic acid] — 3-fold lower, 28.6 µM
- O=C(N/C(=C/c1ccc(-c2ccccc2)cc1)C(=O)N1CCCCC1C(=O)O)c1ccc(C(F)(F)F)cc1 (centres unmarked) [Compound 147] — within 1.5-fold, 60 µM
- Cc1ccc(/C=C(/NC(=O)c2ccc(-c3ccccc3)cc2)C(=O)NC(C(=O)O)C(C)(C)S)o1 (centres unmarked) [Compound 94] — 1.6-fold lower, 55.2 µM
- O=C(NN(Cc1cccc(Oc2ccccc2)c1)C(=O)N[C@@H](COCc1ccccc1)C(=O)O)c1ccc(C(F)(F)F)cc1 [Compound 10, 4-Trifluoromethylbenzoic acid-N′-[(3-phenoxyphenyl)methyl]-N′-[[[(2-benzyloxy)-1-carboxyethyl]amino]carbonyl]hydrazide] — 3.9-fold lower, 22 µM
- O=C(NC(Cc1ccc(C(F)(F)F)cc1)C(=O)O)/C(=C\c1cccc(C(F)(F)F)c1)NC(=O)c1ccc(-c2ccccc2)cc1 (centres unmarked) [Compound 72, 2-[2-[(Biphenyl-4-carbonyl)amino)-3-(3-trifluoromethylphenyl)acryloylamino]-3-(4-trifluoromethylphenyl)propionic acid] — 6.7-fold lower, 12.8 µM
- O=C(NC1(C(=O)O)CCCCC1)/C(=C\c1ccc(Cl)c(Cl)c1)NC(=O)c1ccc(-c2ccccc2)cc1 [Compound 114] — 12-fold lower, 7.3 µM
- O=C(N/C(=C/c1ccc(Cl)c(Cl)c1)C(=O)N1CCCCC1C(=O)O)c1ccc(-c2ccccc2)cc1 (centres unmarked) [Compound 107] — 11-fold lower, 8 µM
- CC(C)(S)C(NC(=O)/C(=C\c1ccc(Cl)c(Cl)c1)NC(=O)c1ccc(C(F)(F)F)cc1)C(=O)O (centres unmarked) [Compound 120] — 3.8-fold lower, 22.7 µM
- CC(C)(S)C(NC(=O)/C(=C\c1ccc(-c2ccccc2)cc1)NC(=O)c1ccc(C(F)(F)F)cc1)C(=O)O (centres unmarked) [Compound 90] — 11-fold lower, 7.8 µM
- O=C(N[C@@H](CSCc1ccccc1)C(=O)O)/C(=C\c1ccc(OCc2ccncc2)cc1)NC(=O)c1ccc(C(F)(F)F)cc1 [Compound 59, (R)-3-Benzylsulfanyl-2-[3-[4-(pyridin-4-yl-methoxy)phenyl]-2-(4-trifluoromethyl-benzoylamino)acryloylamino]propionic acid] — within 1.5-fold, 73.4 µM
- O=C(N[C@@H](CSCc1ccccc1)C(=O)O)/C(=C\c1ccc(Br)cc1)NC(=O)c1ccc(C(F)(F)F)cc1 [Compound 41, (R)-3-Benzylsulfanyl-2-[3-(4-bromophenyl)-2-(4-trifluoromethylbenzoylamino)-acryloylamino]propionic acid] — 1.8-fold lower, 48 µM
- O=C(O)CCCCNC(=O)/C(=C\c1ccc(-c2ccccc2)cc1)NC(=O)c1ccc(C(F)(F)F)cc1 [Compound 132] — 2.1-fold lower, 42 µM
- CC(C)c1ccc(/C=C(/NC(=O)c2ccc(C(F)(F)F)cc2)C(=O)N[C@@H](COCc2ccccc2)C(=O)O)cc1 [Compound 32, (S)-3-Benzyloxy-2-[3-(4-isopropylphenyl)-2-(4-trifluoromethylbenzoylamino)-acryloylamino]propionic acid] — 2.5-fold lower, 34.8 µM
- O=C(NC1(C(=O)O)CCCCC1)/C(=C\c1ccc(-c2ccccc2)cc1)NC(=O)c1ccc(C(F)(F)F)cc1 [Compound 135] — 1.7-fold lower, 50 µM
- Cc1ccc(/C=C(/NC(=O)c2ccc(-c3ccccc3)cc2)C(=O)NC(C(=O)O)C(C)(C)S)s1 (centres unmarked) [Compound 93] — 62-fold lower, 1.4 µM
- O=C(N[C@H](COCc1ccccc1)C(=O)O)/C(=C\c1ccc(Cl)c(Cl)c1)NC(=O)C1CCN(c2nccc(C(F)(F)F)n2)CC1 [Compound 73, (R)-3-Benzyloxy-2-(3-(3,4-dichlorophenyl)-2-{[1-(4-trifluoromethylpyrimidin-2-yl)-piperidine-4-carbonyl]amino}acryloylamino)propionic acid] — 6.7-fold lower, 12.8 µM
- CC(C)(S)C(NC(=O)/C(=C\c1cccc(Oc2ccccc2)c1)NC(=O)c1ccc(C(F)(F)F)cc1)C(=O)O (centres unmarked) [Compound 160] — 5.4-fold lower, 16 µM
- O=C(O)C(Cc1ccc(Cl)cc1)NC(=O)N(CCc1ccc(-c2ccccc2)cc1)Cc1cccc(C(F)(F)F)c1 (centres unmarked) [Compound 87, 2-[3-(2-Biphenyl-4-yl-ethyl)-3-(3-trifluoromethylbenzyl)ureido]-3-(4-chlorophenyl)propionic acid] — 58-fold lower, 1.5 µM
